# Test results from US9751885B2, “Cyclopropanamine compound and use thereof” (Takeda Pharmaceutical Company Limited, priority 2012, dated 2017).
# “And” between values parts separate entries of the source, which are not always exact repeats. Equal values may be shown once. Where a name gives a salt, the structure may show the parent alone. Read-outs that look alike come from different tables or passages of the source. Marks after values point to notes of the source that are not given here.
# Experiments:
# [1] = Evaluation of hippocampal distribution in mouse; format: in vivo; conditions: male ICR mice, 10 mg/kg oral; for concentration at 1 h: 1 hr after administration; for concentration at 0.5 h: 0.5 hr after administration
# Method in brief: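 Male ICR mice dosed orally at 10 mg/kg as suspension in 0.5% methylcellulose/0.02% citric acid/water. Plasma and hippocampus sampled together at 0.5, 1 or 1.5 h; LC/MS/MS concentrations gave hippocampus/plasma ratio.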
# [2] = test system: white blood cell number, red blood cell number, platelet number; assay: Evaluation of blood cell number in mouse; format: in vivo; conditions: oral, Day 2 after administration
# Method in brief: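 Male ICR mice dosed orally at 1, 10, 50 or 100 mg/kg (suspension in 0.5% methylcellulose/0.02% citric acid/water); whole blood collected on Day 2. White cell, red cell and platelet counts per unit volume by automated haematology analyser, expressed as % of mean of untreated control group.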
# [3] = test system: Gad1 H3K4me2 level in rat primary culture neurons; assay: Gad1 H3K4 methylation induction activity in rat primary culture neurons (ChIP-qPCR); format: cell-based; conditions: control without compound = 100%; for activity at 1 µM / activity at 10 µM: Rattus norvegicus, Neuron, 72 h; for activity at 1 µM: read-out: Gad1 H3K4me2 induction activity (%), compound 1 μM, 3 days, rat primary culture neurons; for activity at 10 µM: read-out: Gad1 H3K4me2 induction activity (%), compound 10 μM, 3 days, rat primary culture neurons; for Gad1 H3K4me2 induction activity (%): 3 days, rat primary culture neurons
# Procedure: Gad1 H3K4 Methylation Induction Activity in Rat Primary Culture Neurons
# Thereafter, the compound was added to final concentrations of 1 or 10 μM, and the cells were further cultured for 3 days. The culture supernatant was aspirated, ice-cold PBS was added, and the cell suspension was collected on ice using CELL SCRAPER (IWAKI). […] (750 μL). Furthermore, 0.3% NP40/cell lysis buffer 1 (750 μL) was added, and the cells were lysed by incubating for 5 min on ice.
# Using the DNA obtained by the chromatin immunoprecipitation as a template, quantitative PCR of the Gad1 gene upstream genomic region was performed, and the measurement value was taken as the Gad1 H3K4me2 level. […] The Gad1 H3K4me2 induction by the compound was expressed by the H3K4me2 level when the compound was added, as compared to the H3K4me2 level of the control (without addition of the compound) as 100%.
# [4] = hippocampus, read-out: hippocampus concentration (mean)
# [5] = plasma, read-out: plasma concentration (mean)
SMILES,"concentration at 1 h [1, 4] [ng/g]","concentration at 1 h [1, 5] [ng/mL]","platelet number, percentage of compound administration group compared to control group, mean ([2]; 10 mg/kg)","red blood cell number, percentage of compound administration group compared to control group, mean ([2]; 10 mg/kg)","white blood cell number, percentage of compound administration group compared to control group, mean ([2]; 10 mg/kg)","platelet number, percentage of compound administration group compared to control group, mean ([2]; 100 mg/kg) [%]","red blood cell number, percentage of compound administration group compared to control group, mean ([2]; 100 mg/kg) [%]","white blood cell number, percentage of compound administration group compared to control group, mean ([2]; 100 mg/kg) [%]",activity at 1 µM [3] [%],activity at 10 µM [3] [%],"platelet number, percentage of compound administration group compared to control group, mean ([2]; 1 mg/kg)","red blood cell number, percentage of compound administration group compared to control group, mean ([2]; 1 mg/kg)","white blood cell number, percentage of compound administration group compared to control group, mean ([2]; 1 mg/kg)","platelet number, percentage of compound administration group compared to control group, mean ([2]; 10 mg/kg, hydrochloride)","red blood cell number, percentage of compound administration group compared to control group, mean ([2]; 10 mg/kg, hydrochloride)","white blood cell number, percentage of compound administration group compared to control group, mean ([2]; 10 mg/kg, hydrochloride)","concentration at 0.5 h [1, 4] [ng/g]","concentration at 0.5 h [1, 5] [ng/mL]",Gad1 H3K4me2 induction activity (%) ([3]; compound 10 μM),Gad1 H3K4me2 induction activity (%) ([3]; compound 1 μM)
"Cc1nnc(NC(=O)c2cccc([C@@H]3C[C@H]3NC3CCN(C4CC4)CC3)c2)s1 (relative stereo) [Example 176, 3-(trans-2-((1-cyclopropylpiperidin-4-yl)amino)cyclopropyl)-N-(5-methyl-1,3,4-thiadiazol-2-yl)benzamide fumarate]",642,515,96.7%,97.5%,106.6%,90.2,100.8,107.8,139,116,,,,,,,,,,
"Cc1nnc(NC(=O)c2cccc([C@@H]3C[C@H]3NCC3CC3)c2)s1 (relative stereo) [Example 96, 3-(trans-2-((cyclopropylmethyl)amino)cyclopropyl)-N-(5-methyl-1,3,4-thiadiazol-2-yl)benzamide hydrochloride]",602,1060,,,,102.4,100.7,65.5,122,151,100.9^b %,107.4^b %,116.6^b %,102.1% and 101.0^c %,97.9% and 102.6^c %,61.5% and 122.4^c %,,,,
"Cn1cc(NC(=O)c2cc([C@@H]3C[C@H]3NC3CCC(F)(F)CC3)ccc2F)cn1 (relative stereo) [Example 186, 5-(trans-2-((4,4-difluorocyclohexyl)amino)cyclopropyl)-2-fluoro-N-(1-methyl-1H-pyrazol-4-yl)benzamide hydrochloride]",,,93.1%,101.5%,129.3%,88.2,99.2,111.2,239,191,,,,,,,3120,1320,,
"Cc1nnc(NC(=O)c2cccc(C3CC3NCC3CC3)c2)s1 (single isomer, unassigned) [Example 98, 3-(trans-2-((cyclopropylmethyl)amino)cyclopropyl)-N-(5-methyl-1,3,4-thiadiazol-2-yl)benzamide hydrochloride (Optical Isomer, Retention Time Long)]",,,102.0^c %,105.6^c %,106.5^c %,,,,114,,105.4^b %,103.6^b %,96.5^b %,,,,,,133,
"Cc1nnc(NC(=O)c2cc([C@@H]3C[C@H]3NCC3CC3)ccc2F)s1 (relative stereo) [Example 110, 5-(trans-2-((cyclopropylmethyl)amino)cyclopropyl)-2-fluoro-N-(5-methyl-1,3,4-thiadiazol-2-yl)benzamide dihydrochloride]",,,93.4%,98.7%,114.9%,96.4,100.4,112.0,172,208,,,,,,,3300,4490,,
"Cn1cc(NC(=O)c2cccc([C@@H]3C[C@H]3NCC3CC3)c2)cn1 (relative stereo) [Example 59, 3-(trans-2-((cyclopropylmethyl)amino)cyclopropyl)-N-(1-methyl-1H-pyrazol-4-yl)benzamide dihydrochloride]",,,91.9%,101.1%,128.1%,91.2,93.3,98.8,206,161,,,,,,,,,,
"O=C(NC1CCCC1)c1cccc([C@@H]2C[C@H]2NC2CCOCC2)c1 (relative stereo) [Example 168, N-cyclopentyl-3-(trans-2-(tetrahydro-2H-pyran-4-ylamino)cyclopropyl)benzamide hydrochloride]",,,106.8%,106.5%,97.6%,99.0,101.1,93.6,227,263,,,,,,,439,451,,
"Cc1nnc(NC(=O)c2cccc(C3CC3NCC3CC3)c2)s1 (single isomer, unassigned) [Example 97, 3-(trans-2-((cyclopropylmethyl)amino)cyclopropyl)-N-(5-methyl-1,3,4-thiadiazol-2-yl)benzamide hydrochloride (Optical Isomer, Retention Time Short)]",,,105.2^c %,105.0^c %,100.7^c %,,,,,,99.4^b %,102.7^b %,114.4^b %,,,,,,111,100
